{"source": "patent US8952024B2", "about": "“Herbicidal pyrimidone derivatives” (E I du Pont de Nemours and Company, priority 2009, dated 2015)", "assay_in_all_cases": "Test B pre-/postemergence plant response", "type_in_all_cases": "in vivo", "key": {"[1]": {"system": "Italian ryegrass (Lolium multiflorum)", "details": "for pest or weed control at 31 g/ha: 31 g ai/ha; for pest or weed control at 62 g/ha: 62 g ai/ha; for pest or weed control at 125 g/ha: 125 g ai/ha", "how_it_was_run": "(§1)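 Plants treated either at seeding (loam/sand soil) or postemergence at 2 to 18 cm height, using a surfactant-containing non-phytotoxic solvent formulation. Evaluation was visual after 13 to 15 days, 0 to 100 scale relative to controls.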"}, "[2]": {"system": "large crabgrass (Digitaria sanguinalis)", "details": "for pest or weed control at 31 g/ha: 31 g ai/ha; for pest or weed control at 62 g/ha: 62 g ai/ha; for pest or weed control at 125 g/ha: 125 g ai/ha", "how_it_was_run": "as §1"}, "[3]": {"system": "blackgrass (Alopecurus myosuroides)", "details": "for pest or weed control at 31 g/ha: 31 g ai/ha; for pest or weed control at 62 g/ha: 62 g ai/ha; for pest or weed control at 125 g/ha: 125 g ai/ha", "how_it_was_run": "as §1"}, "[4]": {"system": "woolly cupgrass (Eriochloa villosa)", "details": "for pest or weed control at 31 g/ha: 31 g ai/ha; for pest or weed control at 62 g/ha: 62 g ai/ha; for pest or weed control at 125 g/ha: 125 g ai/ha", "how_it_was_run": "as §1"}, "[5]": {"system": "cocklebur (Xanthium strumarium)", "details": "Preemergence", "how_it_was_run": "as §1"}, "[6]": {"system": "bermudagrass (Cynodon dactylon)", "details": "for pest or weed control at 31 g/ha: 31 g ai/ha; for pest or weed control at 62 g/ha: 62 g ai/ha; for pest or weed control at 125 g/ha: 125 g ai/ha", "how_it_was_run": "as §1"}, "wild oat (Avena fatua)": {"system": "wild oat (Avena fatua)", "details": "Avena fatua, read-out: Plant response rating, Oat, Wild; for pest or weed control at 31 g/ha: 31 g ai/ha", "how_it_was_run": "as §1"}, "[7]": {"details": "Lolium multiflorum, pre-emergence, Preemergence, scale 0 to 100 (0 no effect, 100 complete control), read-out: Plant response rating, Ryegrass, Italian"}, "[8]": {"details": "Preemergence, 250 g ai/ha, 0 to 100 scale"}, "[9]": {"details": "Digitaria sanguinalis, pre-emergence, Preemergence, scale 0 to 100 (0 no effect, 100 complete control), read-out: Plant response rating, Crabgrass, Large"}, "[10]": {"details": "Alopecurus myosuroides, pre-emergence, 360 h, Preemergence, scale 0 to 100 (0 no effect, 100 complete control), read-out: Plant response rating, Blackgrass"}, "[11]": {"details": "Eriochloa villosa, pre-emergence, Preemergence, scale 0 to 100 (0 no effect, 100 complete control), read-out: Plant response rating, Cupgrass, Woolly"}, "[12]": {"details": "Cynodon dactylon, pre-emergence, Preemergence, scale 0 to 100 (0 no effect, 100 complete control), read-out: Plant response rating, Bermudagrass"}}, "note": "Read-outs that look alike come from different tables or passages of the source."}
{"smiles": "COCCn1c(-c2cc(F)cc(F)c2)ncc(C(=O)C2=C(O)C3CCC(C3)C2=O)c1=O", "note": "(stereo not drawn) [Compound 243, 2-(3,5-difluorophenyl)-5-[(2-hydroxy-4-oxobicyclo[3.2.1]oct-2-en-3-yl)carbonyl]-3-(2-methoxyethyl)-4(3H)-pyrimidinone]", "values": [{"measurement": "pest or weed control at 31 g/ha", "setting": "[1]; Lolium multiflorum, post-emergence, Postemergence, 0 to 100 scale (0 no effect, 100 complete control), read-out: Plant response rating, Ryegrass, Italian", "value": 60, "unit": "%"}, {"measurement": "pest or weed control at 62 g/ha", "setting": "[1]; Lolium multiflorum, post-emergence, Postemergence, scale 0 to 100 (0 no effect, 100 complete control), read-out: Plant response rating, Ryegrass, Italian", "value": 85, "unit": "%"}, {"measurement": "pest or weed control at 125 g/ha", "setting": "[1]; Lolium multiflorum, post-emergence, Postemergence, scale 0 (no effect) to 100 (complete control), 13 to 15 days, read-out: Plant response rating, Ryegrass, Italian", "value": 85, "unit": "%"}, {"measurement": "pest or weed control at 250 g/ha", "setting": "[1]; Lolium multiflorum, post-emergence, Postemergence, 250 g ai/ha, scale 0 to 100 (0 no effect, 100 complete control), 13 to 15 days, read-out: Plant response rating, Ryegrass, Italian", "value": 95, "unit": "%"}, {"measurement": "pest or weed control at 31 g/ha", "setting": "[1]; [7]", "value": 0, "unit": "%"}, {"measurement": "pest or weed control at 62 g/ha", "setting": "[1]; [7]", "value": 10, "unit": "%"}, {"measurement": "pest or weed control at 125 g/ha", "setting": "[1]; Lolium multiflorum, pre-emergence, Preemergence, scale 0 to 100, 0 no effect, 100 complete control, read-out: Plant response rating, Ryegrass, Italian", "value": 45, "unit": "%"}, {"measurement": "Ryegrass, Italian plant response rating", "setting": "[1]; [8]", "value": 70}, {"measurement": "pest or weed control at 31 g/ha", "setting": "[2]; Digitaria sanguinalis, post-emergence, Postemergence, 0 to 100 scale (0 no effect, 100 complete control), read-out: Plant response rating, Crabgrass, Large", "value": 95, "unit": "%"}, {"measurement": "pest or weed control at 62 g/ha", "setting": "[2]; Digitaria sanguinalis, post-emergence, Postemergence, scale 0 to 100 (0 no effect, 100 complete control), read-out: Plant response rating, Crabgrass, Large", "value": 100, "unit": "%"}, {"measurement": "pest or weed control at 125 g/ha", "setting": "[2]; Digitaria sanguinalis, post-emergence, Postemergence, scale 0 (no effect) to 100 (complete control), 13 to 15 days, read-out: Plant response rating, Crabgrass, Large", "value": 100, "unit": "%"}, {"measurement": "pest or weed control at 250 g/ha", "setting": "[2]; Digitaria sanguinalis, post-emergence, Postemergence, 250 g ai/ha, scale 0 to 100 (0 no effect, 100 complete control), 13 to 15 days, read-out: Plant response rating, Crabgrass, Large", "value": 100, "unit": "%"}, {"measurement": "pest or weed control at 31 g/ha", "setting": "[2]; [9]", "value": 100, "unit": "%"}, {"measurement": "pest or weed control at 62 g/ha", "setting": "[2]; [9]", "value": 100, "unit": "%"}, {"measurement": "pest or weed control at 125 g/ha", "setting": "[2]; Digitaria sanguinalis, pre-emergence, Preemergence, scale 0 to 100, 0 no effect, 100 complete control, read-out: Plant response rating, Crabgrass, Large", "value": 100, "unit": "%"}, {"measurement": "Crabgrass, Large plant response rating", "setting": "[2]; [8]", "value": 100}, {"measurement": "pest or weed control at 31 g/ha", "setting": "[3]; Alopecurus myosuroides, post-emergence, 360 h, Postemergence, 0 to 100 scale (0 no effect, 100 complete control), read-out: Plant response rating, Blackgrass", "value": 60, "unit": "%"}, {"measurement": "pest or weed control at 62 g/ha", "setting": "[3]; Alopecurus myosuroides, post-emergence, 360 h, Postemergence, scale 0 to 100 (0 no effect, 100 complete control), read-out: Plant response rating, Blackgrass", "value": 80, "unit": "%"}, {"measurement": "pest or weed control at 125 g/ha", "setting": "[3]; Alopecurus myosuroides, post-emergence, 360 h, Postemergence, scale 0 (no effect) to 100 (complete control), 13 to 15 days, read-out: Plant response rating, Blackgrass", "value": 85, "unit": "%"}, {"measurement": "pest or weed control at 250 g/ha", "setting": "[3]; Alopecurus myosuroides, post-emergence, 360 h, Postemergence, 250 g ai/ha, scale 0 to 100 (0 no effect, 100 complete control), 13 to 15 days, read-out: Plant response rating, Blackgrass", "value": 98, "unit": "%"}, {"measurement": "pest or weed control at 31 g/ha", "setting": "[3]; [10]", "value": 0, "unit": "%"}, {"measurement": "pest or weed control at 62 g/ha", "setting": "[3]; [10]", "value": 10, "unit": "%"}, {"measurement": "pest or weed control at 125 g/ha", "setting": "[3]; Alopecurus myosuroides, pre-emergence, 360 h, Preemergence, scale 0 to 100, 0 no effect, 100 complete control, read-out: Plant response rating, Blackgrass", "value": 70, "unit": "%"}, {"measurement": "Blackgrass plant response rating", "setting": "[3]; [8]", "value": 95}, {"measurement": "pest or weed control at 31 g/ha", "setting": "[4]; Eriochloa villosa, post-emergence, Postemergence, 0 to 100 scale (0 no effect, 100 complete control), read-out: Plant response rating, Cupgrass, Woolly", "value": 95, "unit": "%"}, {"measurement": "pest or weed control at 62 g/ha", "setting": "[4]; Eriochloa villosa, post-emergence, Postemergence, scale 0 to 100 (0 no effect, 100 complete control), read-out: Plant response rating, Cupgrass, Woolly", "value": 95, "unit": "%"}, {"measurement": "pest or weed control at 125 g/ha", "setting": "[4]; Eriochloa villosa, post-emergence, Postemergence, scale 0 (no effect) to 100 (complete control), 13 to 15 days, read-out: Plant response rating, Cupgrass, Woolly", "value": 100, "unit": "%"}, {"measurement": "pest or weed control at 250 g/ha", "setting": "[4]; Eriochloa villosa, post-emergence, Postemergence, 250 g ai/ha, scale 0 to 100 (0 no effect, 100 complete control), 13 to 15 days, read-out: Plant response rating, Cupgrass, Woolly", "value": 100, "unit": "%"}, {"measurement": "pest or weed control at 31 g/ha", "setting": "[4]; [11]", "value": 75, "unit": "%"}, {"measurement": "pest or weed control at 62 g/ha", "setting": "[4]; [11]", "value": 95, "unit": "%"}, {"measurement": "pest or weed control at 125 g/ha", "setting": "[4]; Eriochloa villosa, pre-emergence, Preemergence, scale 0 to 100, 0 no effect, 100 complete control, read-out: Plant response rating, Cupgrass, Woolly", "value": 95, "unit": "%"}, {"measurement": "Cupgrass, Woolly plant response rating", "setting": "[4]; [8]", "value": 100}, {"measurement": "Cocklebur plant response rating", "setting": "[5]; 250 g ai/ha, 0 to 100 scale", "value": 98}, {"measurement": "pest or weed control at 62 g/ha", "setting": "[5]; Xanthium strumarium, pre-emergence, 62 g ai/ha, scale 0 to 100 (0 no effect, 100 complete control), read-out: Plant response rating, Cocklebur", "value": 75, "unit": "%"}, {"measurement": "pest or weed control at 125 g/ha", "setting": "[5]; Xanthium strumarium, pre-emergence, 125 g ai/ha, scale 0 to 100, 0 no effect, 100 complete control, read-out: Plant response rating, Cocklebur", "value": 95, "unit": "%"}, {"measurement": "pest or weed control at 31 g/ha", "setting": "[6]; Cynodon dactylon, post-emergence, Postemergence, 0 to 100 scale (0 no effect, 100 complete control), read-out: Plant response rating, Bermudagrass", "value": 98, "unit": "%"}, {"measurement": "pest or weed control at 62 g/ha", "setting": "[6]; Cynodon dactylon, post-emergence, Postemergence, scale 0 to 100 (0 no effect, 100 complete control), read-out: Plant response rating, Bermudagrass", "value": 98, "unit": "%"}, {"measurement": "pest or weed control at 125 g/ha", "setting": "[6]; Cynodon dactylon, post-emergence, Postemergence, scale 0 (no effect) to 100 (complete control), 13 to 15 days, read-out: Plant response rating, Bermudagrass", "value": 100, "unit": "%"}, {"measurement": "pest or weed control at 250 g/ha", "setting": "[6]; Cynodon dactylon, post-emergence, Postemergence, 250 g ai/ha, scale 0 to 100 (0 no effect, 100 complete control), 13 to 15 days, read-out: Plant response rating, Bermudagrass", "value": 100, "unit": "%"}, {"measurement": "pest or weed control at 31 g/ha", "setting": "[6]; [12]", "value": 100, "unit": "%"}, {"measurement": "pest or weed control at 62 g/ha", "setting": "[6]; [12]", "value": 100, "unit": "%"}, {"measurement": "pest or weed control at 125 g/ha", "setting": "[6]; Cynodon dactylon, pre-emergence, Preemergence, scale 0 to 100, 0 no effect, 100 complete control, read-out: Plant response rating, Bermudagrass", "value": 100, "unit": "%"}, {"measurement": "Bermudagrass plant response rating", "setting": "[6]; Preemergence, 250 g ai/ha, 0 to 100 scale, 0 no effect, 100 complete control", "value": 100}, {"measurement": "pest or weed control at 31 g/ha", "setting": "wild oat (Avena fatua); post-emergence, Postemergence, 0 to 100 scale (0 no effect, 100 complete control)", "value": 80, "unit": "%"}, {"measurement": "pest or weed control at 62 g/ha", "setting": "wild oat (Avena fatua); post-emergence, Postemergence, 62 g ai/ha, scale 0 to 100 (0 no effect, 100 complete control)", "value": 85, "unit": "%"}, {"measurement": "pest or weed control at 125 g/ha", "setting": "wild oat (Avena fatua); post-emergence, Postemergence, 125 g ai/ha, scale 0 (no effect) to 100 (complete control), 13 to 15 days", "value": 85, "unit": "%"}, {"measurement": "pest or weed control at 250 g/ha", "setting": "wild oat (Avena fatua); post-emergence, Postemergence, 250 g ai/ha, scale 0 to 100 (0 no effect, 100 complete control), 13 to 15 days", "value": 100, "unit": "%"}, {"measurement": "pest or weed control at 31 g/ha", "setting": "wild oat (Avena fatua); pre-emergence, Preemergence, scale 0 to 100 (0 no effect, 100 complete control)", "value": 30, "unit": "%"}]}
